The record followed here is patent US20230295234A1, “ANTIMICROBIAL PEPTIDOMIMETICS” (SPEXIS AG, priority 2020, published 2023).

In data set [1] the test system is Klebsiella pneumoniae SSI3010. The conditions noted are these: SSI3010. The procedure, abridged: (§1)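 First, bacterial colonies are suspended in saline and adjusted to 0.5 McFarland. Next, the suspension is diluted into cation-adjusted Mueller-Hinton II broth (approx. 5×10^5 CFU/mL). Finally, it is added to two-fold serially diluted peptide, with polysorbate 80 at 0.002% final.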

Data set [2] deals with Escherichia coli ATCC 25922. As to conditions: ATCC 25922. The procedure, abridged:
as §1

In data set [3] the test system is Escherichia coli MCR-1 Af 45. The conditions noted are these: MCR-1 Af 45. The procedure, abridged:
as §1

Data set [4] relates to human red blood cells (hRBC). The experiment in a line: Hemolysis of human red blood cells. Format: cell-based. The conditions noted are these: red cells of human, 1 h. In short, it runs like this:
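Percent hemolysis is OD540 of peptide-treated supernatant relative to water-lysed cells. Each peptide was tested at 200 μg/mL against 20% (v/v) washed human erythrocytes. Incubation was 1 h at 37 °C, 300 rpm.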

Peptide text beside a SMILES is read from it. Where only a bound is given, the exact number is not on record here.

`CC[C@H](C)[C@H](NC(=O)[C@@H](NC(=O)[C@@H]1CCCN1C(=O)[C@@H](NC(=O)[C@@H]1CCCN1C(=O)[C@@H](C)NC(=O)[C@@H](N)CCCCN)C(C)C)[C@@H](C)CC)C(=O)N[C@@H](Cc1ccc(O)cc1)C(=O)N[C@@H]1C(=O)N[C@@H](CC(N)=O)C(=O)N[C@@H](CCCNC(=N)N)C(=O)N[C@@H](CCN)C(=O)N[C@@H]([C@@H](C)O)C(=O)N[C@H](CCN)C(=O)N[C@@H](CCCCN)C(=O)N[C@H](C(=O)N[C@@H](CCN)C(=O)N[C@@H](CCCNC(=N)N)C(=O)N[C@@H](Cc2ccc(O)cc2)C(=O)O)CSSC1(C)C` [Example 90, Lys-^DAla-Pro-Val-Pro-Ile-Ile-Tyr-Pen-Asn-Arg-Dab-Thr-^DDab-Lys-Cys-Dab-Arg-Tyr] (HELM PEPTIDE1{K.[dA].P.V.P.I.I.Y.[Pen].N.R.[Dab].T.[NCC[C@@H](N[*:1])C(=O)[*:2]].K.C.[Dab].R.Y}$PEPTIDE1,PEPTIDE1,9:R3-16:R3$$$V2.0): the “Klebsiella pneumoniae SSI3010 MIC” value in data set [1] amounted to 0.125 mg/L. Also, the “Escherichia coli ATCC 25922 MIC” value in data set [2] is 0.25 mg/L. Besides, the “Escherichia coli MCR-1 Af 45 MIC” value in data set [3] was 0.0625 mg/L. Further, the “Hemolysis at 0.2 g/L” value in data set [4] was determined as 0%.
The like results for `CC[C@H](C)[C@H](NC(=O)[C@@H](NC(=O)[C@@H]1CCCN1C(=O)[C@@H](NC(=O)[C@@H]1CCCN1C(=O)CNC(=O)[C@@H](N)CCCCN)C(C)C)[C@@H](C)CC)C(=O)N[C@@H](Cc1ccc(O)cc1)C(=O)N[C@@H]1C(=O)N[C@@H](CC(N)=O)C(=O)N[C@@H](CCCNC(=N)N)C(=O)N[C@@H](CCN)C(=O)N[C@@H]([C@@H](C)O)C(=O)N[C@H](CCN)C(=O)N[C@@H](CCCCN)C(=O)N[C@H](C(=O)N[C@@H](CCN)C(=O)N[C@@H](CCCNC(=N)N)C(=O)N[C@@H](Cc2ccc(O)cc2)C(=O)O)CSSC1(C)C` [Example 91] (HELM PEPTIDE1{K.G.P.V.P.I.I.Y.[Pen].N.R.[Dab].T.[NCC[C@@H](N[*:1])C(=O)[*:2]].K.C.[Dab].R.Y}$PEPTIDE1,PEPTIDE1,9:R3-16:R3$$$V2.0) were, in that order, 0.125 mg/L, 0.125 mg/L, at most 0.03125 mg/L and 0%.
Regarding `CC[C@H](C)[C@H](NC(=O)[C@@H](NC(=O)[C@@H]1CCCN1C(=O)[C@@H](NC(=O)[C@@H]1CCCN1C(=O)CN(C)C(=O)[C@@H](N)CCCCN)C(C)C)[C@@H](C)CC)C(=O)N[C@@H](Cc1ccc(O)cc1)C(=O)N[C@@H]1C(=O)N[C@@H](CC(N)=O)C(=O)N[C@@H](CCCNC(=N)N)C(=O)N[C@@H](CCN)C(=O)N[C@@H]([C@@H](C)O)C(=O)N[C@H](CCN)C(=O)N[C@@H](CCCCN)C(=O)N[C@H](C(=O)N[C@@H](CCN)C(=O)N[C@@H](CCCNC(=N)N)C(=O)N[C@@H](Cc2ccc(O)cc2)C(=O)O)CSSC1(C)C` [Example 92, Lys-Sar-Pro-Val-Pro-Ile-Ile-Tyr-Pen-Asn-Arg-Dab-Thr-^DDab-Lys-Cys-Dab-Arg-Tyr] (HELM PEPTIDE1{K.[Sar].P.V.P.I.I.Y.[Pen].N.R.[Dab].T.[NCC[C@@H](N[*:1])C(=O)[*:2]].K.C.[Dab].R.Y}$PEPTIDE1,PEPTIDE1,9:R3-16:R3$$$V2.0), the “Klebsiella pneumoniae SSI3010 MIC” value in data set [1] was 0.0625 mg/L. For the same molecule, the “Escherichia coli ATCC 25922 MIC” value in data set [2] was determined as 0.0625 mg/L. Also, in data set [3], the “Escherichia coli MCR-1 Af 45 MIC” value is at most 0.03125 mg/L. Besides, the “Hemolysis at 0.2 g/L” value in data set [4] turned out to be 0%.
Consider `CC[C@H](C)[C@H](NC(=O)[C@@H](NC(=O)[C@@H]1CCCN1C(=O)[C@@H](NC(=O)CNC(=O)CNC(=O)[C@@H](N)CCCCN)C(C)C)[C@@H](C)CC)C(=O)N[C@@H](Cc1ccc(O)cc1)C(=O)N[C@@H]1C(=O)N[C@@H](CC(N)=O)C(=O)N[C@@H](CCCNC(=N)N)C(=O)N[C@@H](CCN)C(=O)N[C@@H]([C@@H](C)O)C(=O)N[C@H](CCN)C(=O)N[C@@H](CCCCN)C(=O)N[C@H](C(=O)N[C@@H](CCN)C(=O)N[C@@H](CCCNC(=N)N)C(=O)N[C@@H](Cc2ccc(O)cc2)C(=O)O)CSSC1(C)C` [Example 93] (HELM PEPTIDE1{K.G.G.V.P.I.I.Y.[Pen].N.R.[Dab].T.[NCC[C@@H](N[*:1])C(=O)[*:2]].K.C.[Dab].R.Y}$PEPTIDE1,PEPTIDE1,9:R3-16:R3$$$V2.0), for which, in data set [1], the “Klebsiella pneumoniae SSI3010 MIC” value was found to be 0.125 mg/L. For the same molecule, the “Escherichia coli ATCC 25922 MIC” value in data set [2] amounted to 0.0625 mg/L. Besides, in data set [3], the “Escherichia coli MCR-1 Af 45 MIC” value was determined as 0.0625 mg/L. Besides, in data set [4], the “Hemolysis at 0.2 g/L” value was determined as 0%.
For the molecule `CC[C@H](C)[C@H](NC(=O)[C@@H](NC(=O)[C@@H]1CCCN1C(=O)[C@@H](NC(=O)CN(C)C(=O)CNC(=O)[C@@H](N)CCCCN)C(C)C)[C@@H](C)CC)C(=O)N[C@@H](Cc1ccc(O)cc1)C(=O)N[C@@H]1C(=O)N[C@@H](CC(N)=O)C(=O)N[C@@H](CCCNC(=N)N)C(=O)N[C@@H](CCN)C(=O)N[C@@H]([C@@H](C)O)C(=O)N[C@H](CCN)C(=O)N[C@@H](CCCCN)C(=O)N[C@H](C(=O)N[C@@H](CCN)C(=O)N[C@@H](CCCNC(=N)N)C(=O)N[C@@H](Cc2ccc(O)cc2)C(=O)O)CSSC1(C)C` [Example 94, Lys-Gly-Sar-Val-Pro-Ile-Ile-Tyr-Pen-Asn-Arg-Dab-Thr-^DDab-Lys-Cys-Dab-Arg-Tyr] (HELM PEPTIDE1{K.G.[Sar].V.P.I.I.Y.[Pen].N.R.[Dab].T.[NCC[C@@H](N[*:1])C(=O)[*:2]].K.C.[Dab].R.Y}$PEPTIDE1,PEPTIDE1,9:R3-16:R3$$$V2.0), the “Klebsiella pneumoniae SSI3010 MIC” value in data set [1] came to 0.125 mg/L. In addition, in data set [2], the “Escherichia coli ATCC 25922 MIC” value amounted to 0.125 mg/L. The “Escherichia coli MCR-1 Af 45 MIC” value in data set [3] is at most 0.03125 mg/L. Besides, the “Hemolysis at 0.2 g/L” value in data set [4] was determined as 0%.
In the case of `CC[C@H](C)[C@H](NC(=O)[C@@H](NC(=O)[C@@H]1CCCN1C(=O)[C@@H](NC(=O)CN(C)C(=O)CN(C)C(=O)[C@@H](N)CCCCN)C(C)C)[C@@H](C)CC)C(=O)N[C@@H](Cc1ccc(O)cc1)C(=O)N[C@@H]1C(=O)N[C@@H](CC(N)=O)C(=O)N[C@@H](CCCNC(=N)N)C(=O)N[C@@H](CCN)C(=O)N[C@@H]([C@@H](C)O)C(=O)N[C@H](CCN)C(=O)N[C@@H](CCCCN)C(=O)N[C@H](C(=O)N[C@@H](CCN)C(=O)N[C@@H](CCCNC(=N)N)C(=O)N[C@@H](Cc2ccc(O)cc2)C(=O)O)CSSC1(C)C` [Example 95, Lys-Sar-Sar-Val-Pro-Ile-Ile-Tyr-Pen-Asn-Arg-Dab-Thr-^DDab-Lys-Cys-Dab-Arg-Tyr] (HELM PEPTIDE1{K.[Sar].[Sar].V.P.I.I.Y.[Pen].N.R.[Dab].T.[NCC[C@@H](N[*:1])C(=O)[*:2]].K.C.[Dab].R.Y}$PEPTIDE1,PEPTIDE1,9:R3-16:R3$$$V2.0), the “Klebsiella pneumoniae SSI3010 MIC” value in data set [1] is on record as 0.25 mg/L. In addition, the “Escherichia coli ATCC 25922 MIC” value in data set [2] was determined as 0.125 mg/L. Besides, the “Escherichia coli MCR-1 Af 45 MIC” value in data set [3] was 0.125 mg/L. In data set [4], the “Hemolysis at 0.2 g/L” value amounted to 0%.
